Assay results reported in patent EP0406122A1, “Process for obtaining a native, wild-type human oestrogen receptor and its applications” (ASSOCIATION POUR LE DEVELOPPEMENT DE LA RECHERCHE EN …, priority 1989, dated 1991).

Target: T1, hER Gly-400 (HEGO) (Homo sapiens, UniProt P03372)
T1 construct: expressed in transfected cells; host or cells: HeLa
T1 sequence (P03372 1-595): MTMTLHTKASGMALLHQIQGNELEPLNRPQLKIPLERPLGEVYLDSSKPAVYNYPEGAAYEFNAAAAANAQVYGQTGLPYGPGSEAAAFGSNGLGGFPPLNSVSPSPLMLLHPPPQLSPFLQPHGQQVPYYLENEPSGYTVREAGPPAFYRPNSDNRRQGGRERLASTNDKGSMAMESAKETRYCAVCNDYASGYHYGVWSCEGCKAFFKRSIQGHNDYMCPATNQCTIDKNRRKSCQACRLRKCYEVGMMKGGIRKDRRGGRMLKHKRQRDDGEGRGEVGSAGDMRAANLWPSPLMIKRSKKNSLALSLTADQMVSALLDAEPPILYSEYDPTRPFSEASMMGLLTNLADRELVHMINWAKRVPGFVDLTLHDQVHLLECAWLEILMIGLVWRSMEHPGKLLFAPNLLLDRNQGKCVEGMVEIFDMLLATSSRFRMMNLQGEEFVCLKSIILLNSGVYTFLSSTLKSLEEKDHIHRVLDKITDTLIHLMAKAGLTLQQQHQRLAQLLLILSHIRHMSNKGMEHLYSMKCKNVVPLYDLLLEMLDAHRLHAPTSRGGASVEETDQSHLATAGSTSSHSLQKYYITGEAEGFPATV
Assay: transcription activation, vit-tk-CAT reporter in HeLa cells transfected with HEGO
Assay type: cell-based, humain
Conditions: 10⁻⁷ M ICI 164,384 in the presence of 10⁻⁸ M oestradiol, CAT activity
Method: On a transfecté des cellules Hela avec 50 ng de vecteurs d'expression de Er humain ou de Er de poulet comme indiqué, conjointement avec 1 µg de plasmide "reporter" vit-tk-cat, et le plasmide pCH 110 de contrôle interne de l'expression de la béta-galactosidase (3µg) et de l'ADN transporteur (Bluescribe M13+) pour un total de 20 µg d'ADN.
• A) Des cellules HeLa ont été transfectées avec 10 ng des vecteurs d'expression de l'hER correspondant, HEO (colonnes 1-5), ou HEGO (colonnes 6-10), conjointement avec 1 µG de plasmide "reporter" vit-tk-CAT, 3 µG du plasmide de contrôle de la béta-galactosidase pCH110 et avec de l'ADN Bluescribe M13+ pour un total d'ADN de 20 µg. […] 2 heures plus tard on a récolté les cellules […] et un dosage de la béta-galactosidase a été effectué.

## CCCCN(C)C(=O)CCCCCCCCCC[C@@H]1Cc2cc(O)ccc2[C@H]2CC[C@]3(C)[C@@H](O)CC[C@H]3[C@H]12 [ICI 164,384]
  effet sur l'induction à l'oestradiol: très peu d'effet
